# Data from patent EP0960886B1, “Peptide T and related peptides in the treatment of inflammation, including multiple sclerosis” (priority 1992, dated 1993).
# What was measured:
# [1] = Treatment of multiple sclerosis patients, case reports (Examples 1 to 4); type: in vivo, human
# Procedure: […] They were treated with prednisone and later with physiotherapy, with little effect. […] Tone was increased in both lower limbs and they had bilateral ankle clonus. Deep tendon reflexes were 2+ in the arms, 3+ in both knees and ankles and the plantar responses were extensor.
# They were started on Peptide T, 8.5 mg subcutaneously daily. […] Their frequency of nocturia was reduced, fine motor control improved, stuttering decreased, their legs were less spastic and they could stand with minimal support. […] The patient has remained stable rather than following their normal progressive downhill course for the months they have remained on Peptide T.
# A person was diagnosed with optic neuritis secondary to multiple sclerosis after presenting with numbness, impaired motor function, and blurred vision (20/300 bilaterally). Their somatic neurological examination was within normal limits. Minor episodes of numbness and impaired speech, balance and co-ordination had occurred over 6 months, as well as headache and loss of vision.
# Peptide T therapy was started.
# A person with their first episode of multiple sclerosis as manifest by optic neuritis and complete blindness in the right eye for 2 weeks, numbness in their right leg and then both legs. […] They had worsening of their ataxias with blurred vision and oscillopsia and was given prednisone 80 mg per day. […] Findings were typical of demyelination consistent with MS. […] The tone was increased in their lower limbs and they had non-sustained ankle clonus bilaterally. Their knee jerk was increased on the right compared to the left. Plantar responses were both upgoing. They had decreased position, vibration, light touch and cold sensation in the feet compared to the hands.
# About 2 months later the patient was started on Peptide T 8.5 mg subcutaneously daily. […] They experienced improved feelings in their fingers, fine movements of their hands and improved cognitive function.
# A person with a history of dizziness, ataxia, episodes of vertigo, impairment of motor function and generalised weakness of the legs was treated with dilantin and admitted to hospital. […] They were reassessed about 2 years later for episodes of dizziness, and complaints of leg spasms. […] Plantar response was downgoing and they had upwards gaze vertical nystagmus as previously noted.
# allogeneic PBMC = test: Two way MLR (Example 9); type: cell-based, human; settings: without Peptide T 1365 ± 335
# Procedure: A two way MLR was performed using 10^5 allogeneic PBMC (cpm of A = 142 ± 86, B = 148 ± 84) cocultured in 200 µl of media as described in Table III.
# Peptide T given on the first day of an MLR will inhibit allogeneic induced proliferation of PBMC (Table IV).
# K562 target cells = test: Macrophage cytotoxicity assay (two step, K562 target cells); type: cell-based
# Procedure: The MO/MAC cytotoxicity assay is a two step assay. After isolation of adherent cells (mainly MO/MAC) from PBMC, MO/MAC are activated by lymphokines (including IFN gamma and LPS. Subsequent to washing which removes activators, ^3H-thymidine labelled K562 target cells were added to activated MO/MAG and incubated for 3 days. The degree of cytotoxicity was proportional to the amount of radioactive label released into the culture supernatant, is shown in the following scheme : [drawing 8]
# [2] = test system: Human umbilical vein endothelial cells; test: TNFα-induced tissue factor expression on endothelial cells, ELISA (Example 17); type: cell-based; settings: TNFα 3 µg/ml for 4 hours; increasing concentrations of Peptide T
# Procedure: Methodology Human umbilical vein endothelial cells were cultured essentially by the method of Bevilacqua et al. Proc. Natl. Acad. Sci. USA 83 4533-4537 (1986). Cell cultures were treated with TNFα at 3 µg/ml for 4 hours at 37° in the presence or absence of Peptide T. Tissue factor expression was measured by an ELISA, following absorbence at 450nm.
# [3] = Health-related quality of life and symptom assessment in MS patients (MS-modified MOS-HIV, PGWB, MS Symptom Checklist); type: in vivo, human
# Source text: To evaluate the impact of drug-related change on overall health and symptom burden, MS patients were followed routinely with both recognized and newly developed health-related quality of life instruments: an MS-modified version of the 30-item Medical Outcomes Study-HIV Survey (MOS-HIV) originally developed by Dr. Albert Wu, the 22-item Psychological General Well-Being Schedule (PGWB) developed by Dr. Harold Dupuy, and the MS Symptom Checklist developed for this study. These instruments, of which the first two have previously been validated and shown to be responsive to change in other disease states, allow quantitation of self-reported symptom variation (see Brook et al., Medical Care 17(7 Suppl.) 1-54 (1979), Fazio "A Concurrent Validation Survey of the NCHS General Well-Being Schedule", US Dept of Health, Education and Welfare, National Center for Health Statistics, Hyattsville, Maryland, USA 1977, McDowell and Newell "Measuring Health: A Guide to Rating Scales and Questionnaires", Oxford University Press 1987, Stewart et al., Medical Care 26 724-35 (1988), JAMA 262 907-13 (1989), and "Measuring Functioning and Well-Being of Patients with Chronic Conditions: The Medical Outcomes Study Approach", Duke University Press 1992, Wachtel et al., Ann. Int. Med. 116 129-137 (1992), Ware et al., "Conceptualization and Measurement of Health for Adults in the Health Insurance Survey, Vol III: Mental Health", Rand Corporation 1979, and Wu et al., Medical Care 29(8) 786-98 (1991)).
# Given the small number of patients involved in this report, some of whom received Peptide T in an on-off-on design, it would not be expected that statistical significance might be obtained. To facilitate establishment of any trends, three patients who stopped taking Peptide T and then restarted the drug some weeks later after a new baseline period appear twice in the following analysis. In this manner, 8 baseline and repeated measures (at weeks 0, 4, 8, and 12) were defined and analysed using two-tailed paired t-tests: see Table XIV.
# HIV = settings: 100 nM Peptide T; cited from earlier work
smiles,measurement,setting,value
"C[C@@H](N)C(=O)N[C@@H](CO)C(=O)N[C@H](C(=O)N[C@H](C(=O)N[C@H](C(=O)N[C@@H](CC(N)=O)C(=O)N[C@@H](Cc1ccc(O)cc1)C(=O)N[C@H](C(N)=O)[C@@H](C)O)[C@@H](C)O)[C@@H](C)O)[C@@H](C)O [Peptide T, D-Ala-Ser-Thr-Thr-Thr-Asn-Tyr-Thr-NH2]",intellectual and motor functioning,"[1]; Example 1: person with MS, 8.5 mg subcutaneously daily, within a few weeks, sustained over 6 months",marked symptomatic improvement
same,visual acuity bilaterally,"[1]; Example 2: person, optic neuritis secondary to MS, six days after start, before therapy 20/300 bilaterally",21/30
same,"fatigue, ataxia and fine motor function after restarting",[1]; Example 3: after stopping and restarting Peptide T,remarkable improvement
same,patient-reported symptoms after start of therapy,"[1]; Example 3: person with MS, 8.5 mg subcutaneously daily, within 1 to 2 weeks",subjective improvement
same,patient-reported symptoms,"[1]; Example 4: person, 8.5 mg subcutaneously daily, within 10 days","increased energy and intellectual function, and improved vision"
same,cpm ± SD,allogeneic PBMC; Peptide T 10^-0 mol/l,764 ± 77 cpm
same,cpm ± SD,allogeneic PBMC; Peptide T 10^-5 mol/l,649 ± 263 cpm
same,cpm ± SD,allogeneic PBMC; Peptide T 10^-7 mol/l,534 ± 108 cpm
same,cpm ± SD,allogeneic PBMC; Peptide T 10^-11 mol/l,681 ± 222 cpm
same,cpm ± SD,allogeneic PBMC; Peptide T 10^-13 mol/l,235 ± 4 cpm
same,cpm ± SD,allogeneic PBMC; Peptide T 10^-15 mol/l,371 ± 117 cpm
same,cpm ± SD,allogeneic PBMC; Peptide T 10^-17 mol/l,672 ± 261 cpm
same,cytotoxicity of activated MO/MAC,K562 target cells; Peptide T added concurrently with target cells or every day of the culture,able to inhibit
same,ability of resting MO/MAC to be activated,K562 target cells; Peptide T added concurrently with the activators,did not affect
same,tissue factor expression,[2],progressively reduce tissue factor expression
same,malaise,[3]; 4 and 8 weeks,statistacally significant
same,forgetfulness and slowness in thinking,"[3]; human, in vivo",trend towards improvement
same,Mean improvements in measures of energy,"[3]; week 12, all three instruments",exceeded 2 standard deviations
same,"physical discomfort, mental health and health distress (MS-modified MOS-HIV)","[3]; weeks 4, 8 and 12",either a trend or statistically significant improvement
same,"energy, general quality of life, well-being and unweighted summary score (MS-modified MOS-HIV)","[3]; weeks 4, 8 and 12 vs baseline, two-tailed paired t-tests",Improvement was statistically significant
same,reduction of reverse transcriptase,HIV,ninefold reduction
